Literature values as cited in US6469069B1, “Propofol composition containing sulfite” (Gensia Sicor Pharmaceuticals, Inc., priority 1998, dated 2002).

Test system: likely microbial contaminants
Conditions: 1% Diprivan (Zeneca) 0.1% Na2S2O5

Question: Which “Preservative effect in propofol emulsion (in words)” value does the source give for O=S([O-])S(=O)(=O)[O-].[Na+].[Na+] [sodium metabisulfite, Sodium metabisulfite] here?
Answer: completely ineffectual
